Test results as given in publication PMC11697083 (Nature Communications, 2025).

What was measured:
Type in all cases: biochemical
KIF18A = target: T1, KIF18A (Homo sapiens, UniProt Q8NI77); experiment: ADP-Glo ATPase assay at varied ATP
T1 sequence (Q8NI77 1-374): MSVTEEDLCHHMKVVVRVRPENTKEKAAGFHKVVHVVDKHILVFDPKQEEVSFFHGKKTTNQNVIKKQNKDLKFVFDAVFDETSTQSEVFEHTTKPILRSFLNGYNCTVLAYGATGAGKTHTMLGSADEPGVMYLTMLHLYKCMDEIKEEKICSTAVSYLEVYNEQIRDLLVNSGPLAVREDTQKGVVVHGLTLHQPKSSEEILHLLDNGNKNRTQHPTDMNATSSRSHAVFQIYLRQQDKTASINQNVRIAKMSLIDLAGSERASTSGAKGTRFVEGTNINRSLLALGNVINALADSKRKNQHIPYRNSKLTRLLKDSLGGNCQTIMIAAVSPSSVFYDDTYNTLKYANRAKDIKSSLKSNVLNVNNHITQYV

Murine KIF18A = target: T2, Murine KIF18A (Mus musculus, UniProt Q91WD7); experiment: ADP-Glo ATPase assay
T2 sequence (Q91WD7 1-886): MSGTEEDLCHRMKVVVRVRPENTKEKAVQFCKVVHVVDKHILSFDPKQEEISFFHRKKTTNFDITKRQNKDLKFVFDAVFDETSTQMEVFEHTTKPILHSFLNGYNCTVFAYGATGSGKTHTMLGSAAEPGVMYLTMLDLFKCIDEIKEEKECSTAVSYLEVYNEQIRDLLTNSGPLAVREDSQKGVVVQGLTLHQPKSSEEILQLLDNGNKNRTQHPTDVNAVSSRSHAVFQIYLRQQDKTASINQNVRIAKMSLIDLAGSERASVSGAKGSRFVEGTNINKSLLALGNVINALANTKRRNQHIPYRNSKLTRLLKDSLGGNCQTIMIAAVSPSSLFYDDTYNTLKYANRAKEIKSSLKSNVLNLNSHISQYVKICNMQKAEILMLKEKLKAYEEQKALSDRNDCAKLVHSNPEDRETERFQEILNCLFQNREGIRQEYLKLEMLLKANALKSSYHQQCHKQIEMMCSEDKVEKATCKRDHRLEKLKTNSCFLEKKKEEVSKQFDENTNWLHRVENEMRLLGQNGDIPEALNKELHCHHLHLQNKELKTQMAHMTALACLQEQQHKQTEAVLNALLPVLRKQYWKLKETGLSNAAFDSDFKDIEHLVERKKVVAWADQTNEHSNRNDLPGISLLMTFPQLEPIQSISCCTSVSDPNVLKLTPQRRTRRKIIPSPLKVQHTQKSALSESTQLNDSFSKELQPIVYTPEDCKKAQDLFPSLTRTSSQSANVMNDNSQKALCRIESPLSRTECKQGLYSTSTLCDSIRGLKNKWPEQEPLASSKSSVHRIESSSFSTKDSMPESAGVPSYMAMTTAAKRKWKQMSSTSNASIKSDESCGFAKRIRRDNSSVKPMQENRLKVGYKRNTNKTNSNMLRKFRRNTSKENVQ

KIF19 = target: T3, KIF19 (Homo sapiens, UniProt Q2TAC6); experiment: ADP-Glo ATPase assay
T3 sequence (Q2TAC6 1-998): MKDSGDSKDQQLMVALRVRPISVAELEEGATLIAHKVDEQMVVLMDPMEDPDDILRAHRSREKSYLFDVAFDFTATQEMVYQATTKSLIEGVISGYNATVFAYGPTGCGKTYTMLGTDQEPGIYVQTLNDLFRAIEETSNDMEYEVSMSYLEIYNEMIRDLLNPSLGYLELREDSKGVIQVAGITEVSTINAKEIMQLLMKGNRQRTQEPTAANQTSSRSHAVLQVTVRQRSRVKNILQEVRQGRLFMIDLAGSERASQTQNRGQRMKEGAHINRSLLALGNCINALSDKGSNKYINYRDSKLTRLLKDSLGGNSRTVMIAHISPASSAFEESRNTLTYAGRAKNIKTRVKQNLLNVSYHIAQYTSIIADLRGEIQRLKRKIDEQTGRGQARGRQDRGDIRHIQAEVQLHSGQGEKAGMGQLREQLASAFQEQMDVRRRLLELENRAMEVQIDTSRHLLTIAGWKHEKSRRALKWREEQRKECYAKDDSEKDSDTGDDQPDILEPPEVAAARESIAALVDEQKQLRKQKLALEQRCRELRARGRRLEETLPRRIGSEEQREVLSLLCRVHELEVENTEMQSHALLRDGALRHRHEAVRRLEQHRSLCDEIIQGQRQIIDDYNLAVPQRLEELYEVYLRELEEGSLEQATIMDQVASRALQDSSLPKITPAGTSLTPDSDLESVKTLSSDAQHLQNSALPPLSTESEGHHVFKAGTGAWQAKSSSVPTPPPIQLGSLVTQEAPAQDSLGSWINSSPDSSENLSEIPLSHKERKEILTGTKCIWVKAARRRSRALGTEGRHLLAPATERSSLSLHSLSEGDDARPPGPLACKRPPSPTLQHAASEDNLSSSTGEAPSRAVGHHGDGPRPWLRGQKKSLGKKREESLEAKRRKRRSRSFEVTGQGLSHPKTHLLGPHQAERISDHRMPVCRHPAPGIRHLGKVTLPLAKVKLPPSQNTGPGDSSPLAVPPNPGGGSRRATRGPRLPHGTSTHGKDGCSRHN

IC50 (KIF18A) [µM] | IC50 (Murine KIF18A) [µM] | IC50 (KIF19) [µM] | SMILES
2.2 |  |  | O=[N+]([O-])c1cc(Cl)ccc1S(=O)(=O)c1ccccc1 [BTB-1]
 | 0.0088 | 0.28 | CC(C)(C)NS(=O)(=O)c1cccc(C(=O)N2CC3(CCC4(CC4)CC3)c3cc(NS(C)(=O)=O)ccc32)c1 [compound 11, N-(tert-butyl)-3-(5”-(methylsulfonamido)dispiro[cyclopropane-1,1’-cyclohexane-4’,3”-indoline]-1”-carbonyl)benzenesulfonamide]
